This is an account of results in patent US20070232658A1, “Protein Kinase C Inhibitors for the Treatment of Autoimmune Diseases and of Transplant Rejiction” (priority 2004, published 2007).

Experiment [1] relates to heart allograft rejection. The experiment can be described thus: Rat heart transplantation. It is filed as in vivo. As to conditions: rat heart transplant, Lewis/DA, 30 mg/kg bid. As for the experimental part:
The strain combination used: Male Lewis (RT^1 haplotype) and DA (RT^1 haplotype). The animals are anaesthetised using inhalational isofluorane. […] The aorta is ligated and divided distal to the first branch and the brachiocephalic trunk is divided at the first bifurcation. The left pulmonary artery is ligated and divided and the right side divided but left open. All other vessels are dissected free, ligated and divided and the donor heart is removed into iced saline.
The recipient is prepared by dissection and cross-clamping of the infra-renal abdominal aorta and vena cava. The graft is implanted with end-to-side anastomoses, using 10/0 monofilament suture, between the donor brachiocephalic trunk and the recipient aorta and the donor right pulmonary artery to the recipient vena cava. The clamps are removed, the graft tethered retroabdominally, the abdominal contents washed with warm saline and the animal is closed and allowed to recover under a heating lamp. Graft survival is monitored by daily palpation of the beating donor heart through the abdominal wall. Rejection is considered to be complete when heart beat stops. Increases of graft survival are obtained in animals treated with a compound of formula I, II, III or IV or a pharmaceutically acceptable salt or solvate thereof administered orally at a daily dose of 10 to 30 mg/kg bid. […]

Experiment [2] has as its system Balb/c spleen cells stimulated by irradiated or mitomycin C treated CBA spleen cells. The experiment can be described thus: Murine mixed lymphocyte reaction (MLR). It is filed as cell-based. As to conditions: Mus musculus, 120 h, 5 days co-incubation, labeled precursor incorporation into DNA, read-out: IC50 (concentration resulting in 50% inhibition of cell proliferation). On the procedure: Spleen cells (0.5×10^6) from Balb/c mice (female, 8-10 weeks) are co-incubated for 5 days with 0.5×10^6 irradiated (2000 rads) or mitomycin C treated spleen cells from CBA mice (female, 8-10 weeks). The irradiated allogeneic cells induce a proliferative response in the Balb/c spleen cells which can be measured by labeled precursor incorporation into the DNA. […] The antiproliferative effect of the compounds on the Balb/c cells is measured at various dilutions and the concentration resulting in 50% inhibition of cell proliferation (IC50) is calculated.

Values joined by “and” are separate entries in the source; they are usually repeats but may differ in a detail not shown here. Identical values can stand only once.

Regarding `Cn1cc(C2=C(c3cn(C4CCN(Cc5ccccn5)CC4)c4ccccc34)C(=O)NC2=O)c2ccccc21` [Compound A, 3-(1-methyl-1H-indol-3-yl)-4-[1-{(1-pyridin-2-ylmethyl)-piperidin-4-yl}-1H-indol-3-yl]-pyrrole-2,5-dione], the “prolongation of graft survival” value in experiment [1] was 14 days and 25 days and 26 days.

Turning to `Cn1cc(C2=C(c3cn(C4CCNCC4)c4ccccc34)C(=O)NC2=O)c2ccccc21` [Compound B, 3-(1-methyl-1H-indol-3-yl)-4-[1-(piperidin-4-yl)-1H-indol-3-yl]-pyrrole-2,5-dione], the IC50 in experiment [2] is 195 nM.
